From patent publication US6914045B2, “Glycopeptide antibiotics” (Wyeth Holdings Corporation, priority 2001, dated 2005)
Values after ≈ are worked out from the molar mass of the structure shown.

Legend:
[1] = system: Enterococcus sp.; test: in vitro antibacterial evaluation, MIC by broth dilution; assay type: cell-based; details: broth dilution, 18 hours at 35° C.
Summary of the method: (§1)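 Broth dilution per NCCLS M7-A2 in Mueller-Hinton II medium, inoculum 5×10^5 CFU/mL, antibiotic range 64-0.06 μg/mL. MIC taken as lowest concentration inhibiting growth; Gram-positive panel includes recent clinical isolates resistant to methicillin, penicillin and/or vancomycin.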

[2] = system: Staphylococcus sp.; test: as above; assay type: cell-based; details: broth dilution, 18 hours at 35° C.
Summary of the method: as §1

[3] = system: Streptococcus sp.; test: as above; assay type: cell-based; details: broth dilution, 18 hours at 35° C.
Summary of the method: as §1

[4] = system: Staphylococcus aureus-SMITH (GC 4543); test: acute lethal infection in mice; assay type: in vivo; details: acute lethal infection, female CD-1 mice, intraperitoneal challenge, intravenous 30 min. after infection, 7 day survival
Summary of the method: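 Intraperitoneal challenge of female CD-1 mice with a bacterial dose lethal to untreated animals within 24-48 hr; single iv treatment 30 min later, 5 mice per dose level. Survival is scored at day 7 and pooled from three experiments to give the median effective dose.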

[5] = clinical pathology (serum clinical chemistry) in mice; assay type: in vivo; details: CD-1 mice, 20 mg/kg intravenously daily for 9 days, sera day 10
Description: 20-day-old CD-1 mice were divided into a vehicle control group (5 mice) and a treatment group (5 mice). Samples of glycopeptide antibiotics were administered at 20 mg/kg intravenously daily for 9 days.

[6] = anatomic pathology (histopathology of heart and kidney) in mice; assay type: in vivo; details: CD-1 mice, 20 mg/kg intravenously daily for 9 days, necropsy day 10, microscopic histopathology
Description: Samples of tissues from necropsied mice were formalin-fixed, paraffin-embedded, sectioned, stained with hematoxylin and eosin, and examined microscopically. Histopathologic findings were recorded. These findings were subjectively graded on a scale corresponding to slight, mild, moderate, marked and severe as compared to untreated controls.

[7] = system: Escherichia coli; test: in vitro antibacterial evaluation, MIC by broth dilution; assay type: cell-based; details: 18 hours at 35° C.

## COc1ccc2cc(COCC3OC(OC4C(CO)OC(Oc5ccc(CC6NC(=O)C(C(C)c7ccccc7)NC(=O)CNC(=O)C(CO)NC(=O)C(C(O)C7CNC(=N)N7C7OC(CO)C(O)C(O)C7O)NC(=O)C(C(O)C7CNC(=N)N7)NC6=O)cc5)C(O)C4O)C(O)C(O)C3O)ccc2c1 (stereo not drawn) [Example 230, Cyclo[glycyl-β-methylphenylalanyl-O-[4-O-[6-O-[(6-methoxy-2-naphthyl)methyl]hexopyranosyl]hexopyranosyl]tyrosyl-3-(2-iminoimidazolidin-4-yl)seryl-3-(3-hexopyranosyl-2-iminoimidazolidin-4-yl)serylseryl]]
[1]
  MIC Enterococcus avium (GC 4558): 8 µg/mL (≈ 5.46 µM)
  MIC Enterococcus faecalis (ATCC 29212): 8 µg/mL (≈ 5.46 µM)
  MIC Enterococcus faecalis (GC 2242): 8 µg/mL (≈ 5.46 µM)
  MIC Enterococcus faecalis (GC 2691): 4 µg/mL (≈ 2.73 µM)
  MIC Enterococcus faecalis (GC 3059): 8 µg/mL (≈ 5.46 µM)
  MIC Enterococcus faecalis (GC 4552): 8 µg/mL (≈ 5.46 µM)
  MIC Enterococcus faecalis (GC 4553): 8 µg/mL (≈ 5.46 µM)
  MIC Enterococcus faecalis (GC 4554): 8 µg/mL (≈ 5.46 µM)
  MIC Enterococcus faecalis (GC 6189): 4 µg/mL (≈ 2.73 µM)
  MIC Enterococcus faecium (GC 2243): 8 µg/mL (≈ 5.46 µM)
  MIC Enterococcus faecium (GC 4556): 8 µg/mL (≈ 5.46 µM)
  MIC Enterococcus faecium (GC 4557): 2 µg/mL (≈ 1.36 µM)
[1]; inoculum 5×10^5 CFU/mL, strain ATCC 29212
  MIC Enterococcus faecalis (ATCC 29212): 8 µg/mL (≈ 5.46 µM)
[1]; inoculum 5×10^5 CFU/mL, strain GC 2242
  MIC Enterococcus faecalis (GC 2242): 8 µg/mL (≈ 5.46 µM)
[1]; inoculum 5×10^5 CFU/mL, strain GC 2243
  MIC Enterococcus faecium (GC 2243): 8 µg/mL (≈ 5.46 µM)
[1]; inoculum 5×10^5 CFU/mL, strain GC 2691
  MIC Enterococcus faecalis (GC 2691): 4 µg/mL (≈ 2.73 µM)
[1]; inoculum 5×10^5 CFU/mL, strain GC 3059
  MIC Enterococcus faecalis (GC 3059): 8 µg/mL (≈ 5.46 µM)
[1]; inoculum 5×10^5 CFU/mL, strain GC 4552
  MIC Enterococcus faecalis (GC 4552): 8 µg/mL (≈ 5.46 µM)
[1]; inoculum 5×10^5 CFU/mL, strain GC 4553
  MIC Enterococcus faecalis (GC 4553): 8 µg/mL (≈ 5.46 µM)
[1]; inoculum 5×10^5 CFU/mL, strain GC 4554
  MIC Enterococcus faecalis (GC 4554): 8 µg/mL (≈ 5.46 µM)
[1]; inoculum 5×10^5 CFU/mL, strain GC 4556
  MIC Enterococcus faecium (GC 4556): 8 µg/mL (≈ 5.46 µM)
[1]; inoculum 5×10^5 CFU/mL, strain GC 4557
  MIC Enterococcus faecium (GC 4557): 2 µg/mL (≈ 1.36 µM)
[1]; inoculum 5×10^5 CFU/mL, strain GC 4558
  MIC Enterococcus avium (GC 4558): 8 µg/mL (≈ 5.46 µM)
[1]; inoculum 5×10^5 CFU/mL, strain GC 6189
  MIC Enterococcus faecalis (GC 6189): 4 µg/mL (≈ 2.73 µM)
[2]
  MIC Coagulase Negative Staphylococcus (GC 4547): 1 µg/mL (≈ 0.682 µM)
  MIC Coagulase Negative Staphylococcus (GC 4548): 0.5 µg/mL (≈ 0.341 µM)
  MIC Coagulase Negative Staphylococcus (GC 4549): 1 µg/mL (≈ 0.682 µM)
  MIC Coagulase Negative Staphylococcus (GC 4551): 2 µg/mL (≈ 1.36 µM)
  MIC Coagulase Negative Staphylococcus (GC 6257): 0.5 µg/mL (≈ 0.341 µM)
  MIC Staphylococcus aureus (ATCC 29213): 2 µg/mL (≈ 1.36 µM)
  MIC Staphylococcus aureus (GC 1131): 2 µg/mL (≈ 1.36 µM)
  MIC Staphylococcus aureus (GC 3051): 2 µg/mL (≈ 1.36 µM)
  MIC Staphylococcus aureus (GC 3053): 2 µg/mL (≈ 1.36 µM)
  MIC Staphylococcus aureus (GC 4541): 1 µg/mL (≈ 0.682 µM)
  MIC Staphylococcus aureus (GC 4542): 2 µg/mL (≈ 1.36 µM)
  MIC Staphylococcus aureus (GC 4544): 2 µg/mL (≈ 1.36 µM)
  MIC Staphylococcus aureus (GC 4545): 1 µg/mL (≈ 0.682 µM)
  MIC Staphylococcus aureus-SMITH (GC 4543): 1 µg/mL (≈ 0.682 µM)
  MIC Staphylococcus haemolyticus (GC 4546): 1 µg/mL (≈ 0.682 µM)
[2]; strain ATCC 29213
  MIC Staphylococcus aureus (ATCC 29213): 2 µg/mL (≈ 1.36 µM)
[2]; strain GC 1131
  MIC Staphylococcus aureus (GC 1131): 2 µg/mL (≈ 1.36 µM)
[2]; strain GC 3051
  MIC Staphylococcus aureus (GC 3051): 2 µg/mL (≈ 1.36 µM)
[2]; strain GC 3053
  MIC Staphylococcus aureus (GC 3053): 2 µg/mL (≈ 1.36 µM)
[2]; strain GC 4541
  MIC Staphylococcus aureus (GC 4541): 1 µg/mL (≈ 0.682 µM)
[2]; strain GC 4542
  MIC Staphylococcus aureus (GC 4542): 2 µg/mL (≈ 1.36 µM)
[2]; strain GC 4543
  MIC Staphylococcus aureus-SMITH (GC 4543): 1 µg/mL (≈ 0.682 µM)
[2]; strain GC 4544
  MIC Staphylococcus aureus (GC 4544): 2 µg/mL (≈ 1.36 µM)
[2]; strain GC 4545
  MIC Staphylococcus aureus (GC 4545): 1 µg/mL (≈ 0.682 µM)
[2]; strain GC 4546
  MIC Staphylococcus haemolyticus (GC 4546): 1 µg/mL (≈ 0.682 µM)
[2]; strain GC 4547
  MIC Coagulase Negative Staphylococcus (GC 4547): 1 µg/mL (≈ 0.682 µM)
[2]; strain GC 4548
  MIC Coagulase Negative Staphylococcus (GC 4548): 0.5 µg/mL (≈ 0.341 µM)
[2]; strain GC 4549
  MIC Coagulase Negative Staphylococcus (GC 4549): 1 µg/mL (≈ 0.682 µM)
[2]; strain GC 4551
  MIC Coagulase Negative Staphylococcus (GC 4551): 2 µg/mL (≈ 1.36 µM)
[2]; strain GC 6257
  MIC Coagulase Negative Staphylococcus (GC 6257): 0.5 µg/mL (≈ 0.341 µM)
[3]
  MIC Streptococcus agalactiae (GC 4564): 0.5 µg/mL (≈ 0.341 µM)
  MIC Streptococcus pneumoniae (ATCC 6301): 0.12 µg/mL (≈ 0.0819 µM)
  MIC Streptococcus pneumoniae (GC 1894): <0.06 µg/mL
  MIC Streptococcus pneumoniae (GC 4565): 0.12 µg/mL (≈ 0.0819 µM)
  MIC Streptococcus pyogenes (GC 4563): 0.25 µg/mL (≈ 0.171 µM)
[3]; inoculum 5×10^5 CFU/mL, strain ATCC 6301
  MIC Streptococcus pneumoniae (ATCC 6301): 0.12 µg/mL (≈ 0.0819 µM)
[3]; inoculum 5×10^5 CFU/mL, strain GC 1894
  MIC Streptococcus pneumoniae (GC 1894): <0.06 µg/mL
[3]; inoculum 5×10^5 CFU/mL, strain GC 4563
  MIC Streptococcus pyogenes (GC 4563): 0.25 µg/mL (≈ 0.171 µM)
[3]; inoculum 5×10^5 CFU/mL, strain GC 4564
  MIC Streptococcus agalactiae (GC 4564): 0.5 µg/mL (≈ 0.341 µM)
[3]; inoculum 5×10^5 CFU/mL, strain GC 4565
  MIC Streptococcus pneumoniae (GC 4565): 0.12 µg/mL (≈ 0.0819 µM)
[4]
  median effective dose (ED50), Staphylococcus aureus-SMITH (GC 4543): 0.12 mg/kg
[5]
  Clinical Chemistry (Day 10) % of Control, BUN: +179%
  Clinical Chemistry (Day 10) % of Control, Creatinine: +124%
[6]
  Anatomical Pathology (Day 10), Heart: 0
  Anatomical Pathology (Day 10), Kidney: +++
[7]
  MIC Escherichia coli (ATCC 25922): 64 µg/mL (≈ 43.7 µM)
  MIC Escherichia coli (GC 4559): >64 µg/mL
  MIC Escherichia coli (GC 4560): 1 µg/mL (≈ 0.682 µM)
